The source of these data is PubChem BioAssay (NCI).

Among the test systems are OVCAR-8 ovarian; HOP-92 NSCLC; RXF 393 renal; SF-539 CNS; SF-295 CNS; LOX IMVI melanoma; COLO 205 colon; T-47D breast; OVCAR-5 ovarian; K-562 leukemia.
What all share (assay): NCI-60 cell line screen, 48 h

“And” between values parts separate entries of the source, which are not always exact repeats. Identical values can stand only once.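 Growth conditions: 96-well plates. Treatment: test compound, 48 hours, 5 concentrations. Analysis: linear interpolation between bracketing concentrations; unreached endpoints set to highest concentration. GI50 = concentration required for 50% inhibition of growth. At the TGI there is no net growth.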 Some results are limits rather than exact numbers.

For the molecule `CS(=O)(=O)CCc1cccc(C(=O)c2cnn(-c3ccc(F)cc3)c2N)c1`, the GI50 with OVCAR-8 ovarian was above 25 µM; in the experiment on HOP-92 NSCLC, above 25000 nM; in the experiment with RXF 393 renal it was above 25 µM; in the experiment with SF-539 CNS, above 25 µM; in the experiment with SF-295 CNS, above 25 µM; with LOX IMVI melanoma, above 25 µM. Further, the GI50 is above 25000 nM in the experiment with COLO 205 colon, above 25000 nM with T-47D breast, above 25 µM with OVCAR-5 ovarian and above 25 µM in the experiment with K-562 leukemia. The TGI in the experiment on OVCAR-8 ovarian, in the experiment with HOP-92 NSCLC, in the experiment with RXF 393 renal, in the experiment on SF-539 CNS, in the experiment with SF-295 CNS and in the experiment with LOX IMVI melanoma was above 25 µM throughout. For the same molecule, the TGI with COLO 205 colon, with T-47D breast, in the experiment on OVCAR-5 ovarian and in the experiment with K-562 leukemia was above 25 µM throughout.
In the case of `Cc1cc(Cc2cc(C)c(NC(=O)C(=O)C3CCC4=C(SC5C=CC=CC5N4)C3=O)c(C(C)C)c2)cc(C(C)C)c1NC(=O)C(=O)C1CCC2=C(SC3C=CC=CC3N2)C1=O` (configuration not stated), the TGI with OVCAR-8 ovarian, with HOP-92 NSCLC, with RXF 393 renal, in the experiment with SF-539 CNS, with SF-295 CNS and in the experiment on LOX IMVI melanoma was above 100 µM throughout. Moreover, the TGI in the experiment with COLO 205 colon, in the experiment with T-47D breast, in the experiment with OVCAR-5 ovarian and with K-562 leukemia was above 100 µM each time.
As for `CC1CCCC(C(O)CC2CC(=O)NC(=O)C2)C1O` (configuration not stated), the TGI with OVCAR-8 ovarian, in the experiment on HOP-92 NSCLC, in the experiment with RXF 393 renal, in the experiment with SF-539 CNS, with SF-295 CNS and in the experiment on LOX IMVI melanoma was above 100 µM throughout. Further, the TGI in the experiment with COLO 205 colon, in the experiment on T-47D breast, in the experiment with OVCAR-5 ovarian and in the experiment with K-562 leukemia was above 100 µM throughout.
Take `c1ccc(CN2COc3c(ccc4c3OCN(Cc3ccccc3)C4)C2)cc1`: the GI50 in the experiment on OVCAR-8 ovarian is 0.391 µM; in the experiment on HOP-92 NSCLC, 1180 nM; in the experiment on RXF 393 renal, 0.41 µM; in the experiment on SF-539 CNS it was 1.45 µM; in the experiment on SF-295 CNS it was 0.554 µM; in the experiment on LOX IMVI melanoma, 0.825 µM. Also, the GI50 is 1960 nM with COLO 205 colon, 960 nM in the experiment with T-47D breast, 0.857 µM in the experiment with OVCAR-5 ovarian and 0.445 µM in the experiment with K-562 leukemia. Besides, the TGI was above 100 µM with OVCAR-8 ovarian; above 100 µM with HOP-92 NSCLC; above 100 µM in the experiment with RXF 393 renal; 6.41 µM in the experiment with SF-539 CNS; above 100 µM with SF-295 CNS; above 100 µM in the experiment on LOX IMVI melanoma. Further, the TGI in the experiment on COLO 205 colon is above 42 µM; with T-47D breast, above 100 µM; in the experiment on OVCAR-5 ovarian it was above 100 µM; in the experiment with K-562 leukemia, above 100 µM.
As for `COc1cc(NCCCN=C(N)NC(N)=NC(C)C)c2ncccc2c1`, the GI50 with OVCAR-8 ovarian is 23.5 µM; with HOP-92 NSCLC, 2540 nM; with RXF 393 renal, 22.8 µM; in the experiment with SF-539 CNS, 5.08 µM; with SF-295 CNS it was 79.3 µM; in the experiment on LOX IMVI melanoma, 11.8 µM. Besides, the GI50 was 195 nM in the experiment with COLO 205 colon, 1580 nM with T-47D breast, 12.8 µM in the experiment with OVCAR-5 ovarian and 7.56 µM with K-562 leukemia. For the same molecule, the TGI is above 87.1 µM in the experiment with OVCAR-8 ovarian; 26.5 µM in the experiment with HOP-92 NSCLC; above 91.2 µM in the experiment with RXF 393 renal; 30 µM in the experiment on SF-539 CNS; above 100 µM in the experiment on SF-295 CNS; 42.9 µM in the experiment with LOX IMVI melanoma. Also, the TGI in the experiment with COLO 205 colon was 1.92 µM; in the experiment with OVCAR-5 ovarian, 43.3 µM; in the experiment with K-562 leukemia, above 95.1 µM.
As to `C=CC(=O)Nc1cc(C)ccc1Nc1nc(Nc2cc(OC)ncc2C)ncc1C(F)(F)F`, the GI50 in the experiment on OVCAR-8 ovarian is 2.83 µM; with HOP-92 NSCLC it was 188 nM; with RXF 393 renal, 0.352 µM; in the experiment with SF-539 CNS, 0.344 µM; with SF-295 CNS, 2.84 µM; in the experiment with LOX IMVI melanoma, 0.142 µM. In addition, the GI50 is 55.5 nM with COLO 205 colon, 1200 nM with T-47D breast, 0.227 µM with OVCAR-5 ovarian and 2.56 µM in the experiment with K-562 leukemia. The TGI in the experiment with OVCAR-8 ovarian is above 100 µM; in the experiment on HOP-92 NSCLC it was 0.981 µM; with RXF 393 renal, 1.85 µM; in the experiment on SF-539 CNS, 1.63 µM; with SF-295 CNS, above 100 µM; in the experiment with LOX IMVI melanoma, 1.03 µM. The TGI in the experiment on COLO 205 colon was 1.48 µM; with T-47D breast, above 100 µM; in the experiment on OVCAR-5 ovarian, 2.14 µM; with K-562 leukemia, above 100 µM.
`CCC(=C/[C@H](C)C/C=C/C(C)=C/[C@@H](C)C(=O)[C@@H](C)[C@H](O)[C@@H](C)CC)/C=C/[C@@H]1OC(=O)C=C[C@H]1C`: the GI50 in the experiment on OVCAR-8 ovarian was below 0.01 µM; in the experiment with HOP-92 NSCLC it was below 10 nM; in the experiment with RXF 393 renal, below 0.01 µM; in the experiment with SF-539 CNS, below 0.01 µM; in the experiment on SF-295 CNS, below 0.01 µM; in the experiment with LOX IMVI melanoma, below 0.01 µM. The GI50 in the experiment on COLO 205 colon is below 10 nM; in the experiment on T-47D breast, below 10 nM; with OVCAR-5 ovarian, below 0.01 µM; with K-562 leukemia it was below 0.01 µM. Moreover, the TGI was 1.41 µM in the experiment with OVCAR-8 ovarian; below 0.01 µM with HOP-92 NSCLC; below 0.01 µM in the experiment with RXF 393 renal; below 0.01 µM in the experiment on LOX IMVI melanoma; below 0.0166 µM in the experiment on COLO 205 colon; 2.13 µM in the experiment with T-47D breast. The TGI with OVCAR-5 ovarian stood at 1.8 µM; with K-562 leukemia, 1.07 µM.
`O=C(O)C1(C(=O)O)CCC1.[NH2-].[NH2-].[Pt+2]`: the GI50 is 181 µM and > 193 µM in the experiment with OVCAR-8 ovarian; 125000 nM and 106000 nM in the experiment on HOP-92 NSCLC; 76 µM and 178 µM in the experiment on RXF 393 renal; 81.2 µM and 96 µM in the experiment on SF-539 CNS; 63.1 µM and 111 µM with SF-295 CNS; 70.2 µM and 70.7 µM in the experiment with LOX IMVI melanoma. Moreover, the GI50 with COLO 205 colon was 224000 nM and > 250000 nM; in the experiment on T-47D breast, above 250000 nM; in the experiment on OVCAR-5 ovarian it was 233 µM and > 250 µM; in the experiment on K-562 leukemia, 142 µM and > 166 µM. The TGI with OVCAR-8 ovarian was 232 µM and > 250 µM; with HOP-92 NSCLC, 222 µM and 246 µM; with RXF 393 renal, 167 µM and > 250 µM; in the experiment on SF-539 CNS it was 221 µM and > 250 µM; in the experiment on SF-295 CNS, 236 µM and > 250 µM; in the experiment on LOX IMVI melanoma, 211 µM and 175 µM. The TGI in the experiment with COLO 205 colon, in the experiment with T-47D breast, in the experiment on OVCAR-5 ovarian and in the experiment with K-562 leukemia was above 250 µM in each case.
